Assay results taken from patent publication US8198317B2, “Methylenedioxy phenolic compounds and their use to treat disease” (The Ohio State University Research Foundation, priority 2008, dated 2012).

How the values were obtained:
Format in all cases: in vivo, human
[1] = tested on: Patients; test: Treatment of patients with Type I and Type II diabetes (Example 24); conditions: diabetic patients, oral, 12 months
Text: Individuals with Type I and Type II diabetes are at risk for future cardiovascular events such as heart attacks, strokes and kidney disease. These individuals are on prevention treatments such as hypolipidemic drug therapy such as statins and anti-hypertensive agents such as ACE inhibitors. They are already receiving glycemia lowering strategies such as Insulin, PPARγ agents, Metformin or sulfonylurea therapy. They also will receive an acceptable dose of a composition comprising a compound of the present invention in an acceptable carrier orally chronically for durations in excess of 12 months. In one study, 3,4-Methylenedioxy 6-nitro phenyl lipoate (INV-7465) or 3,4-Methylenedioxy phenyl lipoate (INV-7065) are administered to these individuals. The patients undergo the following measurements: HbA1C to assess glycemic control, urinary microalbuminura, blood pressure and lipid measurements. At the end of 12 months of treatment, there is lowering of HbA1C and urinary microalbuminuria. There is an improvement in VLDL cholesterol and a decrease in triglycerides with any of these treatments [(3,4-methylenedioxy phenyl acetate (INV 73); 3,4-methylenedioxy-6-nitrophenol (INV 74); 3,4-methylenedioxy-6-nitrophenyl acetate (INV 75); 3,4-Methylenedioxy 6-nitro phenyl lipoate (INV-7465) or 3,4-Methylenedioxy phenyl lipoate (INV-7065)].

[2] = tested on: Patient; test: Treatment of a patient with acute ST elevation myocardial infarction (Examples 13-15); conditions: 1.0 to 100 mg/kg intravenously
Experimental: A person presents with sudden chest pain typically radiating to the left arm or left side of the neck, shortness of breath, nausea and palpitation with vomiting and sweating. After being evaluated with an electrocardiogram (EKG, ECG), a chest X-ray and blood tests to detect elevations in cardiac markers (blood tests to detect heart muscle damage), they are diagnosed as suffering from acute ST elevation myocardial infarction. The patient is administered a composition comprising an effective amount of 3,4-methylenedioxy-6-nitrophenyl acetate (INV 75) (1.0 to 100 mg/kg) intravenously. The composition is optionally administered in conjunction with therapy such as thrombolytic drugs such as tissue plasminogen activator (tPA) or streptokinase and administration of aspirin, a drug to reduce the tendency of platelet aggregation, such as clopidogrel bisulfate, a statin, and/or heparin or a combination thereof, using dosages known to one of ordinary skill in the art. Patient reports improvement in the chest pain, shortness of breath and palpitations.
(§1) A person presents with sudden chest pain typically radiating to the left arm or left side of the neck, shortness of breath, nausea and palpitation with vomiting and sweating. After being evaluated with an electrocardiogram (EKG, ECG), a chest X-ray and blood tests to detect elevations in cardiac markers (blood tests to detect heart muscle damage), they are diagnosed as suffering from acute ST elevation myocardial infarction. The patient is administered a composition comprising an effective amount of 3,4-methylenedioxy-6-nitrophenyl acetate (INV 7465) (1.0 to 100 mg/kg) intravenously. […]
as §1, with “infarction.” for “infarction. The patient is administered a composition comprising an effective amount of 3,4-methylenedioxy-6-nitrophenyl acetate (INV 7465) (1.0 to 100 mg/kg) intravenously.”

[3] = tested on: Humans; test: Prevention or delay of onset of atherosclerosis in humans (Example 23); conditions: 2 mg/kg to 50 mg/kg iv or im, one to six months
Experimental: Individuals with documented risk factors for atherosclerosis and having high plasma cholesterol levels have a ultrasound analysis of the coronary (IVUS), carotid (IMT) or popliteal arteries to establish a baseline measurement. A portion of these individuals are […] administered a composition comprising a compound of the present invention in an acceptable carrier at a dose of 2 mg/kg to 50 mg/kg intravenously (iv) or intramuscular (im) I to 3 times per week over a period of approximately one to six months. The following compounds are administered to these individuals: 3,4-methylenedioxy phenyl acetate (INV 73); 3,4-methylenedioxy-6-nitrophenol (INV 74); 3,4-methylenedioxy-6-nitrophenyl acetate (INV 75); 3,4-Methylenedioxy 6-nitro phenyl lipoate (INV-7465) or 3,4-Methylenedioxy phenyl lipoate (INV-7065). The other individuals receive the carrier alone. A new ultrasound analysis at the end of the treatment period indicates higher levels of plaque in the vessels of individuals receiving the carrier.

Compound | VLDL cholesterol [1] | triglycerides [1] | chest pain, shortness of breath and palpitations [2] | preventing or reducing atherosclerosis (ultrasound, versus carrier alone) [3] | HbA1C [1] | urinary microalbuminuria [1]
CC(=O)Oc1cc2c(cc1[N+](=O)[O-])OCO2 [INV-75, 3,4-methylenedioxy-6-nitrophenyl acetate] | improvement | decrease | improvement | effective |  | 
O=C(CCCCC1CCSS1)Oc1ccc2c(c1)OCO2 (stereo not shown) [INV-7065, 3,4-Methylenedioxy phenyl lipoate] | improvement | decrease | improvement | effective | lowering | lowering
O=C(CCCCC1CCSS1)Oc1cc2c(cc1[N+](=O)[O-])OCO2 (stereo not shown) [INV-7465, 3,4-Methylenedioxy 6-nitro phenyl lipoate] | improvement | decrease | improvement | effective | lowering | lowering
